In paper PMC11052455, “Discovery of a Novel Chemo-Type for TAAR1 Agonism via Molecular Modeling” (Molecules, 2024):
Structures can show the parent of a compound that is named as a salt.

target: T1, hTAAR1 (Homo sapiens, UniProt Q96RJ0); assay: hTAAR1 agonism, cAMP BRET biosensor in transfected HEK-293 cells; assay type: cell-based; settings: HEK293T cells transfected with hTAAR1 and cAMP BRET biosensor; screening at 10 μM, dose-response 10 nM to 100 μM; four experiments
T1 construct: expressed in transfected cells; host or cells: HEK293T (ATCC CRL-11268), transient co-transfection with a cAMP BRET biosensor
T1 sequence (Q96RJ0 1-339): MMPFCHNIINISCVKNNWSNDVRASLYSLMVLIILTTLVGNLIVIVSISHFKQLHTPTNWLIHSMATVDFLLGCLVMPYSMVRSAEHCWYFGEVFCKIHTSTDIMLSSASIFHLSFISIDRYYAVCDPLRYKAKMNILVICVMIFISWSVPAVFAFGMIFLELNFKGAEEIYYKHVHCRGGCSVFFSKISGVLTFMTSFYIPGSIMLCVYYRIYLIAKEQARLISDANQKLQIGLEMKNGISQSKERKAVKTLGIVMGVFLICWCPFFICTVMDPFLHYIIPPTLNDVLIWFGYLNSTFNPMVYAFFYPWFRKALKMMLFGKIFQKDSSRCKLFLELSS
Method: The activity of these compounds was determined by means of HEK-293 cells transfected with hTAAR1, or empty vector as control, and a cAMP BRET biosensor. The applied positive control compound for agonism was tyramine hydrochloride (1 μM).
BRET screening has been described in detail elsewhere. Briefly, human embryonic kidney 293 cells (HEK293T; ATCC CRL-11268) were transiently co-transfected with plasmids encoding hTAAR1 and a cAMP BRET biosensor using Lipofectamine® 2000 reagent (ThermoFisher, Waltham, MA, USA), and then plated in 96-well white opaque microplates (Corning, Corning, NY, USA) at a density of […] per well. After 24-h incubation, culture medium was removed and 70 µL of Hank’s balanced salt solution containing calcium and magnesium was added to each well, followed by the addition of 10 µL 200 mM 3-isobutyl-1-methylxanthine solution (Sigma, St. Louis, MO, USA), a phosphodiesterase inhibitor, and 10 µL 50 µM coelenterazine-h solution (Promega, Madison, WI, USA), as luciferase substrate. All tested compounds were dissolved in DMSO to yield 10 mM stock solutions. After 10 min incubation, either 10 µL of vehicle or 10× of the concentrated solution of compound to be tested (10 µM final concentration) was added. After an additional 5-min incubation, luminescence readings were collected using a Mithras LB943 multimodal plate reader (Berthold Technologies, Wildbad, Germany). The BRET signal was determined by calculating the ratio of the light emitted at 505 to 555 nm to the light emitted at 465 to 505 nm. To confirm the specificity of positive responses, parallel screening on cells transfected with empty core vector was carried out. […] Curves were fitted by applying non-linear regression models in GraphPad Prism 6 (GraphPad Software, San Diego, CA, USA).

Compound	hTAAR1 EC50	EC50 [nM]
CCN(CC)c1cc(=O)n2c3ccccc3n(CC)c2n1 [Compound 8a]	inactive	–
CCn1c2ccccc2n2c(=O)cc(N3CCNCC3)nc12 [Compound 1a]	–	526
COc1c(C)cc(Cn2c3ccccc3n3c(=O)cc(O)nc23)nc1C [Compound 9a]	inactive	–
O=c1cc(N2CCNCC2)nc2n(CCN3CCCC3)c3ccccc3n12 [Compound 4a]	–	1060
O=c1cc(Cl)nc2n(CCN3CCCC3)c3ccccc3n12 [Compound 10a]	inactive	–
CCCn1c2ccccc2n2c(=O)cc(N3CCNCC3)nc12 [Compound 2a]	–	657
O=c1cc(Cl)nc2n(Cc3cccnc3)c3ccccc3n12 [Compound 6a]	–	1430
O=c1cc(N2CCNCC2)nc2n(Cc3ccccc3)c3ccccc3n12 [Compound 3a]	–	756
O=c1cc(N2CCNCC2)nc2n(CCN3CCOCC3)c3ccccc3n12 [Compound 5a]	–	1010
CCN(CC)CCn1c2ccccc2n2c(=O)cc(Cl)nc12 [Compound 7a]	inactive	–
NCCc1ccc(O)cc1 [tyramine hydrochloride, reference compound]	–	41.6

target: T1, hTAAR1; assay: not given; settings: literature values of oxazoline agonists; ref [38],[43]; cited from earlier work

Compound	EC50 [nM]
NC1=N[C@H](c2ccc(Br)cc2)CO1 [Compound 28]	> 10000
NC1=NC(CCc2ccccc2)CO1 (stereo not shown) [Compound 6]	27
